# Measured values reported in PubChem BioAssay AID1963978 (Molecular Pharmacology Branch, DTP, NCI, 2024).
# System: 616215-338-R-J1-PDC spheroids with HUVEC/MSC, viability
# Experiment: Anticancer human tumor 616215-338-R-J1-PDC patient-derived colon adenocarcinoma cell line growth inhibition [PI3K]
# Conditions: for viability, T/C: stronger effect = lower value
# How it was run: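 Stroma-containing spheroids: tumor line, pooled-donor HUVEC, hMSC. Treatments: targeted agents with PI3K inhibitors. Dosing: clinically relevant, half-log spacing, 10 microM ceiling without known Cmax. Read-out: cell viability.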
# [1] = curve of first compound, second compound 0.0316 µM
# [2] = curve of first compound, second compound 0.1 µM
# [3] = curve of first compound, second compound 0.316 µM
# [4] = curve of first compound, second compound 1 µM
# [5] = curve of first compound, second compound 3.16 µM
# [6] = curve of first compound, second compound 10 µM
# [7] = second compound 0.0316 µM, first compound 0.000316 µM
# [8] = second compound 0.0316 µM, first compound 0.001 µM
# [9] = second compound 0.0316 µM, first compound 0.00316 µM
# [10] = second compound 0.0316 µM, first compound 0.01 µM
# [11] = second compound 0.0316 µM, first compound 0.0316 µM
# [12] = second compound 0.0316 µM, first compound 0.1 µM
# [13] = second compound 0.1 µM, first compound 0.000316 µM
# [14] = second compound 0.1 µM, first compound 0.001 µM
# [15] = second compound 0.1 µM, first compound 0.00316 µM
# [16] = second compound 0.1 µM, first compound 0.01 µM
# [17] = second compound 0.1 µM, first compound 0.0316 µM
# [18] = second compound 0.1 µM, first compound 0.1 µM
# [19] = second compound 0.316 µM, first compound 0.000316 µM
# [20] = second compound 0.316 µM, first compound 0.001 µM
# [21] = second compound 0.316 µM, first compound 0.00316 µM
# [22] = second compound 0.316 µM, first compound 0.01 µM
# [23] = second compound 0.316 µM, first compound 0.0316 µM
# [24] = second compound 0.316 µM, first compound 0.1 µM
# [25] = second compound 1 µM, first compound 0.000316 µM
# [26] = second compound 1 µM, first compound 0.001 µM
# [27] = second compound 1 µM, first compound 0.00316 µM
# [28] = second compound 1 µM, first compound 0.01 µM
# [29] = second compound 1 µM, first compound 0.0316 µM
# [30] = second compound 1 µM, first compound 0.1 µM
# [31] = second compound 3.16 µM, first compound 0.000316 µM
# [32] = second compound 3.16 µM, first compound 0.001 µM
# [33] = second compound 3.16 µM, first compound 0.00316 µM
# [34] = second compound 3.16 µM, first compound 0.01 µM
# [35] = second compound 3.16 µM, first compound 0.0316 µM
# [36] = second compound 3.16 µM, first compound 0.1 µM
# [37] = second compound 10 µM, first compound 0.000316 µM
# [38] = second compound 10 µM, first compound 0.001 µM
# [39] = second compound 10 µM, first compound 0.00316 µM
# [40] = second compound 10 µM, first compound 0.01 µM
# [41] = second compound 10 µM, first compound 0.0316 µM
# [42] = second compound 10 µM, first compound 0.1 µM
# 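Note: spheroids exposed to agents for seven days before the viability read.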
smiles,measurement,setting,value
CC(C)NCC(C(=O)N1CCN(c2ncnc3c2C(C)CC3O)CC1)c1ccc(Cl)cc1 (stereo not given),"viability, T/C",compound 0.0316 µM,98.8% [middle of 4 runs]
same,"viability, T/C",compound 0.1 µM,94.3% [middle of 4 runs]
same,"viability, T/C",compound 0.316 µM,95.1% [middle of 4 runs]
same,"viability, T/C",compound 1 µM,102% [middle of 4 runs]
same,"viability, T/C",compound 3.16 µM,77.5% [middle of 4 runs]
same,IC50,curve of compound,6.53 µM [middle of 4 runs]
CC(=O)c1c(C)c2cnc(Nc3ccc(N4CCNCC4)cn3)nc2n(C2CCCC2)c1=O + CC(Nc1ncnc2nc[nH]c12)c1cc2cccc(Cl)c2c(=O)n1-c1ccccc1,IC50,[1],> 100 nM
same,IC50,[2],> 100 nM
same,IC50,[3],> 100 nM
same,IC50,[4],> 100 nM
same,IC50,[5],> 100 nM
same,IC50,[6],> 100 nM
same,"viability, T/C",[7],106%
same,"viability, T/C",[8],104%
same,"viability, T/C",[9],93.2%
same,"viability, T/C",[10],93.3%
same,"viability, T/C",[11],92.5%
same,"viability, T/C",[12],102%
same,"viability, T/C",[13],98.7%
same,"viability, T/C",[14],105%
same,"viability, T/C",[15],99.6%
same,"viability, T/C",[16],106%
same,"viability, T/C",[17],104%
same,"viability, T/C",[18],118%
same,"viability, T/C",[19],110%
same,"viability, T/C",[20],95.2%
same,"viability, T/C",[21],98.4%
same,"viability, T/C",[22],92.3%
same,"viability, T/C",[23],106%
same,"viability, T/C",[24],114%
same,"viability, T/C",[25],98.2%
same,"viability, T/C",[26],104%
same,"viability, T/C",[27],99.5%
same,"viability, T/C",[28],107%
same,"viability, T/C",[29],113%
same,"viability, T/C",[30],110%
same,"viability, T/C",[31],115%
same,"viability, T/C",[32],88.1%
same,"viability, T/C",[33],99.2%
same,"viability, T/C",[34],112%
same,"viability, T/C",[35],101%
same,"viability, T/C",[36],103%
same,"viability, T/C",[37],97.8%
same,"viability, T/C",[38],94%
same,"viability, T/C",[39],122%
same,"viability, T/C",[40],118%
same,"viability, T/C",[41],104%
same,"viability, T/C",[42],90.9%
Cn1ncnc1[C@H]1c2n[nH]c(=O)c3cc(F)cc(c23)N[C@@H]1c1ccc(F)cc1 + Cc1nc(NC(=O)N2CCCC2C(N)=O)sc1-c1ccnc(C(C)(C)C(F)(F)F)c1,IC50,[1],> 100 nM
same,IC50,[2],> 100 nM
same,IC50,[3],> 100 nM
same,IC50,[4],> 100 nM
same,IC50,[5],> 100 nM
same,IC50,[6],> 100 nM
same,"viability, T/C",[7],95.2%
same,"viability, T/C",[8],88.9%
same,"viability, T/C",[9],112%
same,"viability, T/C",[10],89.3%
same,"viability, T/C",[11],109%
same,"viability, T/C",[12],99.1%
same,"viability, T/C",[13],101%
same,"viability, T/C",[14],98.7%
same,"viability, T/C",[15],97.8%
same,"viability, T/C",[16],97.2%
same,"viability, T/C",[17],104%
same,"viability, T/C",[18],109%
same,"viability, T/C",[19],92%
same,"viability, T/C",[20],103%
same,"viability, T/C",[21],89.6%
same,"viability, T/C",[22],104%
same,"viability, T/C",[23],99.9%
same,"viability, T/C",[24],90%
same,"viability, T/C",[25],107%
same,"viability, T/C",[26],103%
same,"viability, T/C",[27],94.5%
same,"viability, T/C",[28],93.4%
same,"viability, T/C",[29],90.2%
same,"viability, T/C",[30],93.5%
same,"viability, T/C",[31],103%
same,"viability, T/C",[32],94.6%
same,"viability, T/C",[33],98.5%
same,"viability, T/C",[34],93%
same,"viability, T/C",[35],92.5%
same,"viability, T/C",[36],87.7%
same,"viability, T/C",[37],107%
same,"viability, T/C",[38],91.3%
same,"viability, T/C",[39],85.7%
same,"viability, T/C",[40],81.3%
same,"viability, T/C",[41],81.4%
same,"viability, T/C",[42],80.4%
